In patent US20090270404A1, “OXYMETHYLENE ARYL COMPOUNDS AND USES THEREOF” (Metabolex, Inc., priority 2008, published 2009):

Tests used:
C57Bl/6J mice = experiment: Oral glucose tolerance test in mice (with sitagliptin); format: in vivo; details: glucose 2 g/kg, FIG. 1
Procedure: C57Bl/6J mice were fasted for 6 hours prior to drug administration. Blood glucose was measured after the 6 hour fast (T30 min), and animals were sorted into groups evenly matched for fasting glucose levels. At T30, drug suspension was administered to the mice by oral gavage. Glucose was administered at TO min at 2 g/kg. The administration volume was 5 mL/kg of body weight. Blood was sampled at TO, prior to glucose administration, then at 15, 30, 60, 90 and 120 min after glucose administration for measurement of glucose by glucometer. 10 mice were used for each dose group. The formulation of 5-Ethyl-2-{4-[4-(4-tetrazol-1-yl-phenoxymethyl)-thiazol-2-yl]-piperidin-1-yl}-pyrimidine and sitagliptin was 1% carboxymethylcellulose, 2% Tween 80 prepared in a manner essentially as described in Example 2. The formulation was a suspension and was continuously stirred during dosing of the animals.
Glucose levels were plotted against time and the incremental area under the curve (AUC) of the glucose excursion was determined from T0 to T120 using GraphPad Prism 5.1. Statistical significance of differences in AUC between compound treatment and vehicle was determined by non-parametric Kruskal-Wallis test with Dunn's post test. […] Statistical differences in the glucose levels at each time point during OGTT were determined by two way ANOVA with Bonferroni's post test. […]

mice = experiment: Incretin secretion of mice, dose response on top of sitagliptin; format: in vivo; details: increasing dosages (1, 3, 10, 30 and 300 mg/kg) given in addition to sitapliptin at 100 mg/kg, 10 minutes after glucose, FIG. 5a
Procedure: 5-Ethyl-2-{4-[4-(4-tetrazol-1-yl-phenoxymethyl)-thiazol-2-yl]-piperidin-1-yl}-pyrimidine, sitagliptin, and vildagliptin were prepared as in Examples 1 and 2.
Mice were fasted for 6 h prior to drug administration. Blood glucose was measured after the 6 h fast (T30 min), and animals were sorted into 6 groups evenly matched for fasting glucose levels and body weight. At T30 min, drug suspension as prepared in Example 1 herein, was administered to the mice by oral gavage. All groups were given sitagliptin at 100 mg/kg, and Compound 1 was given at 1, 3, 10, 30 and 300 mg/kg. 100 mg/kg sitagliptin was chosen since this dose is greater than that required to achieve 80% DPP-IV inhibition in mice over the time period evaluated in this study. (Kim et al, 2005). Glucose (2 g/kg) was administered by oral gavage at T0. Animals were anesthetized and blood drawn by terminal cardiac puncture 10 minutes after glucose administration. To address the effects on incretin production, total GIP levels were measured. […] The DPP-IV inhibitor sitagliptin was co-administered to prevent breakdown of active GLP-1 by DPP-IV (Kim et al; 2005). Statistical significance of differences in GLP-1, GIP and glucose levels between compound+sitagliptin treatment and sitagliptin alone was determined by one way ANOVA with Dunnet's post test. Differences with a p value less than 0.05 were considered significant. […]

Compound | incremental AUC of the glucose excursion T0 to T120 (C57Bl/6J mice; compound only at 30 mg/kg oral gavage) | secretion of active GLP-1 (mice) | incremental AUC of the glucose excursion T0 to T120 (C57Bl/6J mice; sitagliptin alone at 10 mg/kg oral gavage)
CCc1cnc(N2CCC(c3nc(COc4ccc(-n5cnnn5)cc4)cs3)CC2)nc1 [5-Ethyl-2-{4-[4-(4-tetrazol-1-yl-phenoxymethyl)-thiazol-2-yl]-piperidin-1-yl}-pyrimidine] | approximately 3200 mg.min/dl | stimulated secretion of active GLP-1 | 
N[C@@H](CC(=O)N1CCn2c(nnc2C(F)(F)F)C1)Cc1cc(F)c(F)cc1F [sitagliption, sitagliptin, reference compound] |  |  | approximately 2800 mg.min/dl
